In patent publication US4707497A, “Phenylethanolaminotetralines, a process for their preparation and pharmaceutical compositions containing them” (Sanofi, priority 1985, dated 1987):
Where a name gives a salt, the structure may show the parent alone.

What was measured:
[1] = system: epididymal white adipose tissue adipocytes; experiment: Lipolytic activity in vitro on white adipose tissue (WAT) adipocytes, release of free fatty acids; type: cell-based; conditions: Rattus norvegicus, Adipocyte; compound 10^-6 M; per cent of noradrenaline effect at 5.10^-6 M (maximal effect); 37° C., 1 hour, pH 7.4
Description: (§1) More particularly, the compounds of the present invention show a remarkable lipolytic activity in mammals in the tests predictive of said activity, such as in the test "in vitro" on the brown adipose tissue (BAT) and on the white adipose tissue (WAT) and in the test "in vivo", based upon the thermogenesis in the rat. More particularly, in the test "in vitro" male rats, each weighing 100-125 g, are sacrificed and the adipocytes of the interscapular brown adipose tissue and those of the epididymal white adipose tissue are dissected out, according to the method of M. Rodbell, J. Biol. Chem. 1967, 242, 5744-5750 and separately treated as follows. The adipocytes are incubated with the compound to be tested at a temperature of 37° C. for an hour in Phosphate Krebs-Ringer-(4%) albumine medium at pH 7.4. The long chain fatty acids that are released in the medium are determinated by the method reported by D.I. Trout and al., J. Lip. Res. 1960, 1, 199-202, and compared with the amount of the triglycerides present in the adipocytes, determined by the method of E. Van Handel and al., J. Lab. Clin. Med., 1957, 50, 152-157. The results obtained for representative compounds of the present invention are shown in TABLE I, where the lipolytic activity of the compounds at the dose of 10^-6 M, measured as release of free fatty acids (μEq), is expressed as per cent of the noradrenaline effect at the dose of 5.10^-6 M (maximal effect on both BAT and WAT).

[2] = system: adipocytes of the interscapular brown adipose tissue; experiment: Lipolytic activity in vitro on brown adipose tissue (BAT) adipocytes, release of free fatty acids; type: cell-based; conditions: Rattus norvegicus, Adipocyte; compound 10^-6 M; per cent of noradrenaline effect at 5.10^-6 M (maximal effect); 37° C., 1 hour, pH 7.4
Description: as §1

[3] = system: mice; experiment: Acute toxicity in mice; type: in vivo, mouse; conditions: oral dose up to 200 mg/kg
[4] = system: interscapular BAT; experiment: Activity on brown adipose tissue thermogenesis in vivo in anaesthetized rats; set-up: species or system rat; conditions: 7.5 mg/kg intraperitoneally
Procedure: In the test "in vivo", the activity on brown adipose tissue thermogenesis is determined by the method reported by P. J. Wellman, Research Communication in Chemical Pathology and Pharmacology 1983, 41, 173-176.
The anaesthesied rats are treated intraperitoneally with the vehicle and 7.5 mg/kg of the compound to be tested. The interscapular BAT and rectal temperatures are recorded 10, 20 and 30 minutes after the injection.

Molecule `COc1ccc2c(c1)CC(NCC(O)c1cccc(Cl)c1)CC2` (stereo not shown) [SR 58338A, 2-[(7-methoxy-1,2,3,4-tetrahydronaphth-2-yl)amino]-1-(3-chloropheny)ethanol hydrochloride] has an activation at 1 µM [1] of 89% and an activation at 1 µM [2] of 77%.
Work on `Oc1ccc2c(c1)CC(NCC(O)c1ccccc1)CC2` (stereo not shown) [SR 58306A, 2-[(7-hydroxy-1,2,3,4-tetrahydronaphth-2-yl)amino]-1-phenylethanol hydrochloride] yielded an activation at 1 µM [1] of 78% and an activation at 1 µM [2] of 80%.
`CCOC(=O)COc1ccc2c(c1)CC(NCC(O)c1cccc(Cl)c1)CC2.O=C(O)C(=O)O` (stereo not shown) [SR 58380A, 2-[(7-carbethoxymethoxy-1,2,3,4-tetrahydronaphth-2-yl)amino]-1-(3-chlorophenyl)ethanol oxalate] was tested, and the mortality [3] was “do not cause any mortality”, the activation at 1 µM [1] was 90% and the activation at 1 µM [2] was 96%.
`COc1ccc2c(c1)CC(NCC(O)c1ccccc1)CC2` (stereo not shown) [SR 58279A, 2-[(7-methoxy-1,2,3,4-tetrahydronaphth-2-yl)amino]-1-phenylethanol hydrochloride] was tested, and the activation at 1 µM [1] was 30% and the activation at 1 µM [2] was 50%.
In the case of `Oc1ccc2c(c1)CC(NC[C@H](O)c1ccccc1)CC2` (stereo partly drawn) [SR 58365A, (1R,2'RS)-2-[(7-hydroxy-1,2,3,4-tetrahydronaphth-2-yl)amino]-1-phenylethanol hydrochloride], the activation at 1 µM [1] is reported as 78% and the activation at 1 µM [2] is reported as 96%.
For `Oc1ccc2c(c1)CC(NCC(O)c1ccccc1)CC2` (stereo not shown) [SR 58306, 2-[(7-hydroxy-1,2,3,4-tetrahydronaphth-2-yl)amino]-1-phenylethanol], the “ΔT, average difference between interscapular BAT temperature and rectal temperature” value ([4]; 10' after injection, anaesthetized rats (vehicle 0.06 ± 0.04)) was 0.60 ± 0.10 °C, the “ΔT, average difference between interscapular BAT temperature and rectal temperature” value ([4]; 20' after injection, anaesthetized rats (vehicle 0.10 ± 0.04)) was 0.90 ± 0.10 °C and the “ΔT, average difference between interscapular BAT temperature and rectal temperature” value ([4]; 30' after injection, anaesthetized rats (vehicle 0.14 ± 0.05)) was 0.92 ± 0.08 °C.
`Oc1ccc2c(c1)CC(NC[C@H](O)c1ccccc1)CC2` (single isomer, unassigned; (+)) [SR 58375A, hydrochloride] was tested, and the activation at 1 µM [1] was 97% and the activation at 1 µM [2] was 100%.
With `Cl.Oc1ccc2c(c1)CC(NCC(O)c1cccc(Cl)c1)CC2` (stereo not shown) [SR 58339A, 2-[(7-hydroxy-1,2,3,4-tetrahydronaphth-2-yl)amino]-1-(3-chlorophenyl)-ethanol hydrochloride] the mortality [3] was “do not cause any mortality”, the activation at 1 µM [1] was 92% and the activation at 1 µM [2] was 103%.
